Results published in paper PMC8537501 (2021).
Blank lines part the entries; values can stand above or below the molecule they belong to.

Key:
[1] = system: CPG-tel26 (DNA, G4) TTAGGGTTAGGGTTAGGGTTAGGGTT; experiment: G4-CPG affinity chromatography; details: 50 mM KCl; 10% DMSO, 10% ethanol; 600 μM ligand
[2] = system: CPG-c-myc (DNA, G4) TGGGGAGGGTGGGGAGGGTGGGGAAGGTGGGGA; experiment: G4-CPG affinity chromatography; details: 50 mM KCl; 10% DMSO, 10% ethanol; 600 μM ligand
[3] = system: CPG-ds27 (DNA, hairpin) CGCGAATTCGCGTTTCGCGAATTCGCG; experiment: G4-CPG affinity chromatography; details: 50 mM KCl; 10% DMSO, 10% ethanol; 600 μM ligand
[4] = system: tel26 (DNA, G4) TTAGGGTTAGGGTTAGGGTTAGGGTT; experiment: fluorescence titration; details: 5 mM KCl
[5] = system: ds27 (DNA, hairpin) CGCGAATTCGCGTTTCGCGAATTCGCG; experiment: fluorescence titration; details: 5 mM KCl
[6] = system: c-myc (DNA, G4) TGGGGAGGGTGGGGAGGGTGGGGAAGGTGGGGA; experiment: fluorescence titration; details: 5 mM KCl
[7] = system: tel26 (DNA, G4) TTAGGGTTAGGGTTAGGGTTAGGGTT; experiment: CD melting, 290 nm; details: 5 mM KCl; 5 mM phosphate, 5% DMSO, pH 7; 2 μM DNA, 20 μM ligand
[8] = system: ds27 (DNA, hairpin) CGCGAATTCGCGTTTCGCGAATTCGCG; experiment: CD melting, 251 nm; details: 5 mM KCl; 5 mM phosphate, 5% DMSO, pH 7; 2 μM DNA, 20 μM ligand
[9] = system: c-myc (DNA, G4) TGGGGAGGGTGGGGAGGGTGGGGAAGGTGGGGA; experiment: CD melting, 262 nm; details: 0.5 mM KCl; 0.5 mM phosphate, 5% DMSO, pH 7; 2 μM DNA, 20 μM ligand
[10] = 5 mM phosphate, 5% DMSO, pH 7, 20 °C, 2 μM ligand, independent equivalent-sites model

- binding [1]: weak
Compound: CC(C)(O)CC[C@@H](O)[C@](C)(O)[C@H]1CC[C@@]2(O)C3=CC(=O)[C@@H]4C[C@@H](O)[C@@H](O)C[C@]4(C)[C@H]3CC[C@]12C

- binding [2]: weak
- binding [1]: weak
Compound: CC(C)=CCC1=C(O)c2c(cc3cc(C)cc(O)c3c2O)C(CC=C(C)C)(CC=C(C)C)C1=O

- binding [2]: weak
- binding [1]: weak
Compound: CC(C)=CCc1c(C)cc2cc3c(c(O)c2c1O)C(=O)C=C(O)C3(CC=C(C)C)CC=C(CO)CO (stereo not shown)

- binding [2]: yes
- binding [3]: yes
- binding [1]: yes
Compound: CC1=C2C(=O)[C@H]3[C@@H](CC=C4C[C@@H](O)CC[C@@]43C)[C@@H]2CC[C@]12O[C@@H]1C[C@H](C)CN[C@H]1[C@H]2C

- binding [2]: yes
- binding [3]: yes
- binding [1]: yes
Compound: CC[C@H]1CN2CCc3cc(OC)c(OC)cc3[C@@H]2C[C@@H]1C[C@H]1NCCc2cc(OC)c(OC)cc21

- Kb [4]: 4.1 (±0.8) × 10^5 M^-1
- Kb [5]: 3.7 (±0.7) × 10^5 M^-1
- Kb [6]: 3.9 (±0.7) × 10^5 M^-1
- ΔTm [7]: +2 °C
- ΔTm [8]: 0 °C
Compound: CC[C@H]1C[C@@H]2C[C@H]3c4[nH]c5ccc(OC)cc5c4CCN(C2)[C@@H]13

- ΔTm [9]: +5 °C
- binding [2]: yes
- ΔTm [7]: 0 °C
- ΔTm [8]: −3 °C
- binding [1]: yes
Compound: CN1CC[C@]23C(=O)C[C@H]4C(=CCO[C@H]5CC(=O)N(c6c(O)cccc62)[C@H]3[C@H]54)C1

- ΔTm [9]: +13 °C
- binding ([4]; 5 mM phosphate, 5% DMSO, pH 7, 20 °C, 2 μM ligand, quenching, not fitted): yes
- binding ([5]; 5 mM phosphate, 5% DMSO, pH 7, 20 °C, 2 μM ligand, DNA up to 10 μM): no
- binding ([6]; 5 mM phosphate, 5% DMSO, pH 7, 20 °C, 2 μM ligand, enhancement then quenching, not fitted): yes
- ΔTm [7]: +4 °C
- ΔTm [8]: −1 °C
Compound: CN1Cc2c(ccc3c2OCO3)[C@@H]2[C@H]1c1cc3c(cc1C[C@@H]2O)OCO3

- binding [2]: weak
Compound: COC(=O)[C@@H]1[C@H]2C[C@H]3c4[nH]c5ccccc5c4CCN3C[C@@H]2CC[C@@H]1O

- binding [2]: weak
- binding [1]: weak
Compound: COc1cc2cc3c(c(O)c2c2c1C=CC(C)(C)O2)C(=O)CC(C)(O)C3 (stereo not shown)

- ΔTm [9]: +9 °C
- Kb [4, 10]: 1.0 (±0.4) × 10^6 M^-1
- Kb [5, 10]: 1.2 (±0.6) × 10^6 M^-1
- Kb [6, 10]: 1.1 (±0.4) × 10^6 M^-1
Compound: COc1ccc2c(c1O)-c1c3c(cc4c1[C@H](C2)N(C)CC4)OCO3
